Legend:
MDCK cells [1] = assay: Assay of intracellular glutathione (GSH) in MDCK cells by HPLC; assay type: cell-based, dog
Procedure: The glutathione assay has been performed as a result of the formation of S-carboxymethyl-derivatives of free thiols with iodoacetic acid followed by conversion of the NH2 terminal groups to 2,4-dinitrophenyl derivatives after the reaction of 1-fluoro-2,4-dinitrobenzene (Anal. Biochemn., 106, 55-62, 1980).
The MDCK cells were detached by means of the scraping technique. Later, the cells were centrifuged at 1,200 rpm for 5 minutes. The cells were washed twice in PBS and the precipitate, obtained after centrifuging, was resuspended in 200 μl of buffer. The cell lysates, obtained with repeated cycles of freezing and thawing, were deproteinised by means of precipitation in 5% metaphosphoric acid. After centrifuging at 22,300 g, the low-molecular-weight thiols present in the supernatant were derivatised with 10% iodoacetic acid v/v and neutralised with NaHCO3 in powder form. After 1 h of incubation in the dark a solution of 1.5% 1-chloro-2,4-dinitrobenzene v/v was added (1.5 ml/98.5 ml of absolute ethanol). […] The protein concentration was calculated using the Lowry method (Biol. Chem., 193, 265-75, 1951). […] The reducing reaction product is detected by the formation of stained compounds by reaction with the aromatic amino acids of the proteins. […]

[2] = test system: influenza virus A/PR8/34, subtype H1N1 (virus PR8); assay: Replication of influenza virus PR8 in MDCK cells, virus released in supernatant titrated as haemagglutinating units; assay type: cell-based
MDCK cells [3] = assay: Apoptosis in MDCK cells by FACS after labelling with propidium iodide; assay type: cell-based, dog; details: for apoptosis: antiviral doses of the drug
Procedure: As regards the analysis of apoptosis. MDCK cells were infected with the virus PR8. After viral adsorption, the cells were treated with resveratrol at various concentrations (5, 10, 15 and 20 μg/ml). Twenty-four hours after infection, the cells were detached using a 0.25% trypsin solution and then centrifuged at 1,200 rpm for 5 min, The precipitate thus obtained was analysed by means of the FACS technique after labelling with propidium iodide.
For the purposes of assessing whether the induction of cell death by apoptosis was involved in the antiviral effect of reservatrol, MDCK cells were infected or not with the virus and treated with the substance at the various concentrations. Cell death by apoptosis was evaluated by FACS after labelling with propidium iodide. […] The infection in itself induced apoptosis in 12% of infected cells. Although the addition of increasing doses caused an increase in the mortality, no significant difference was observed between infected cells and uninfected cells treated with antiviral doses of the drug (35 and 37% apoptosis, respectively).

MDCK cells [4] = assay: Toxicity of resveratrol on confluent monolayers of uninfected MDCK cells (cell count, Trypan Blue viability)
Procedure: The cells were cultured in T-25 vials or in 6- and 24-well Libno plates in RPMI culture medium added with L-glutamine, penicillin-streptomycin and 10% foetal calf serum (FCS) and maintained at 37° C. in a 5% CO2 atmosphere. The confluent cell monolayers were detached with a 0.25% trypsin solution, centrifuged and reseeded in fresh medium. The cell count was done using a haemocytometer and cell viability was determined by means of exclusion with Trypan Blue viability staining (0.02%).
For the purposes of determining the possible degree of toxicity on the MDCK cells, the latter were treated with resveratrol after the confluence of the monolayer, at various concentrations (5, 10, 15, 20 and 40 μg/ml).

[5] = test system: mRNAs for the viral proteins HA and M; assay: PCR for messenger RNAs of late viral proteins in infected MDCK cells; assay type: cell-based, influenza virus A/PR8/34, subtype H1N1
viral proteins NP and M = assay: Localisation of proteins NP and M in infected MDCK cells by immunofluorescence; assay type: cell-based, influenza virus A/PR8/34, subtype H1N1; details: 20 μg/ml
Procedure: Viral replication was also assessed with analysis of the occurrence of viral antigens on the surface of the infected cell by means of immunofluorescence. Analysis of viral proteins by immunofluorescence was done with a fluorescence microscope using a filter emitting in the green (FITC) (lens 100×). MDCK cells, cultured on cover slides for 24 h were infected and, 18 h after infection, were fixed with methanol-acetone 1:1 at 4° C. for 15 min. Later, the cells were washed twice in PBS and permeabilised with a 0.1% solution of PBS-TRITON for 5 min. Blockade of the aspecific sites was done with 1% milk dissolved in PBS for 30 min at ambient temperature. Later, specific monoclonal antibodies (mouse anti-influenza NP and mouse anti-influenza M) to viral proteins were added, diluted 1:50 in PBS for 30 min at ambient temperature. The primary antibody was detected with a secondary antibody conjugated to fluorescein (anti-mouse FITC, Sigma). […]

influenza virus A/PR = assay: Survival of mice infected intranasally with influenza virus A/PR; assay type: in vivo, Balb/c AnCrIBR mice; details: 1 mg/kg, intraperitoneal, daily for 7 days
Procedure: Four-week-old female inbred Balb/c AnCrIBR mice were used. Resveratrol, dissolved in PBS, was administered to the animals via the intraperitoneal route at various times after infection with the influenza virus. The reservatrol concentrations were chosen so as to obtain a range of doses in the animals' blood similar to the effective range in vitro (10 to 20 μg/ml).
The mice were inoculated intranasally (i.n.) with a suspension containing the influenza virus A/PR at a multiplicity of infection of 2 HAU/mouse, after light anaesthesia with ether. On the basis of previous experimental data, the influenza virus at this multiplicity of infection produces haemorrhagic pneumonia that leads to the death of 80% of the animals by one week after infection. For the purposes of monitoring the infection trend, both virological and immunological parameters were monitored in addition to studying survival curves.
The efficacy of resveratrol was studied in an experimental influenza virus infection model in the mouse. In this model, intranasal inoculation of the virus causes severe haemorrhagic pneumonia which leads to the death of the animals within 7 to 10 days of infection. The experimental design envisages evaluation of the therapeutic efficacy of the study substance, as assessed on the basis of survival of the infected animals. […]

[6] = test system: influenza virus PR8 viral proteins (H0-H1, H2, M, NP, P); assay: Synthesis of viral proteins in infected MDCK cells by Western blotting; assay type: cell-based, influenza virus A/PR8/34, subtype H1N1; details: 15 and 20 μg/ml
Procedure: Viral proteins were analysed by Western blotting. At different times after viral infection, the cells were lysed using special lysis buffers. Equal quantities of proteins were then loaded onto polyacrylamide gel in SDS. After electrophoresis, the proteins were transferred onto a nitrocellulose membrane and treated with anti-influenza polyclonal antibody. After incubation and suitable washings, the filters were treated with a second antibody conjugated to peroxidase and the viral proteins were highlighted by means of the chemiluminescence technique (ECL), using a peroxidase substrate (luminol) which, on reacting with the enzyme, emits a light and makes an impression on the autoradiography plate. The cells were treated with resveratrol at various concentrations (5, 10, 15 and 20 μg/ml). To allow better imaging of the viral proteins, the electrophoresis run was done using a 10% polyacrylamide gel (FIG. 7A) and gradient gel (FIG. 7B).

3,4,5-trihydroxystilbene [resveratrol]
GSH levels in infected cells (MDCK cells [1]; infected MDCK cells, 24 h after infection): did not restore the GSH levels reduced by the infection | intracellular GSH levels compared to untreated cells (MDCK cells [1]; uninfected MDCK cells): produced a reduction in intracellular GSH levels | time of addition after infection at which viral replication was significantly inhibited ([2]; 20 μg/ml, added 0, 3, 6 and 9 h after infection, HAU/ml 24 h after infection): ≤ 3 h | duration of treatment needed for inhibition of replication ([2]; 20 μg/ml, added immediately after infection, removed at 0, 3, 6, 9 and 24 h): at least 9 hours | reduction of viral titre compared to infected and untreated controls ([2]; 20 μg/ml, added post-infection, MDCK cells, 0.2 m.o.i.): 87% | viral replication after 24 h, treatment only during viral adsorption ([2]; 20 μg/ml, for one hour at 37° C. during adsorption, then removed): comparable to the replication obtained in the control cells | viral replication ([2]; 40 μg/ml): viral replication was completely blocked | viral replication, dose dependence ([2]; added post-infection, 1-40 μg/ml, HAU 24 and 48 h after infection): inhibited viral replication in a dose-dependent manner | reversibility of antiviral activity ([2]; on discontinuing the treatment): not reversible on discontinuing the treatment | viral replication after direct incubation of the virus with the substance ([2]; virus incubated with 40 μg/ml for one hour at 37° C., diluted 1:500, then used for infecting cells): no reduction in viral replication was observed | apoptosis (MDCK cells [3]; infected cells): 35% | cell death by apoptosis (MDCK cells [3]; uninfected cells, 5 μg/ml): 8% | cell death by apoptosis (MDCK cells [3]; uninfected cells, 20 μg/ml): 32% | apoptosis (MDCK cells [3]; uninfected cells): 37% | toxic effects on uninfected cells (MDCK cells [4]; 20 μg/ml): without any toxic effects on the uninfected cells being detected | toxic effects / cell mortality (MDCK cells [4]; 40 μg/ml): toxic effects were observed with an increase in cell mortality | morphological alterations of the cells (MDCK cells [4]; 10-20 μg/ml): no morphological alterations of the cells were observed | cell number (MDCK cells [4]; 10-20 μg/ml, confluent monolayer, uninfected): a slight reduction in cell number was observed | release of messenger RNAs for the late viral proteins (HA and M) ([5]; 20 μg/ml, evaluated 8 hours after infection): causes a delay in the release of messenger RNAs | synthesis of the mRNAs for HA and M ([5]; 20 h after infection): not affected by treatment with resveratrol | localisation of protein NP (viral proteins NP and M): the NP is retained in the nucleus | protein M expression (viral proteins NP and M): significantly inhibited | mortality versus untreated animals (influenza virus A/PR): significantly reduced the mortality | animals that survived the infection (influenza virus A/PR; 2 HAU/mouse i.n.): 60% | expression of early nucleocapside proteins (NP and P) [6]: inhibited, though to a lesser extent than that of the late proteins | synthesis of late haemoagglutinin (H0-H1, H2) and matrix proteins (M) [6]: almost totally inhibited
